# Laboratory results: patent US8163939B2, “Ascorbic acid derivative or salt thereof, production method thereof, and cosmetic” (Seikwa Kasei Company, Limited, priority 2007, dated 2012)
# Legend:
# B16 melanoma 4A5 cell = assay: Whitening test: theophylline-induced melanine production in B16 melanoma 4A5 cells; assay type: cell-based, mouse; details: for Whitening effect (melanine production suppressing rate): sample at a concentration of 100 μM or less, theophylline-induced melanine production, 3 days culture, N=4;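 on Whitening effect (melanine production suppressing rate): grades: ± under 20% + 20-40% ++ 40-70% +++ 70-100% suppression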
# Experimental: As a test for a whitening effect, evaluation of the action of B16 melanoma 4A5 cell on theophylline-induced melanine production was carried out on an ascorbic acid derivative of the present invention, according to the following procedure. The same evaluation was carried out also on ascorbic acid, known compounds: ascorbic acid salts, and ascorbic acid derivatives, as comparison. The results are shown in Tables 38 to 40. • (1) B16 mouse melanoma 4A5 strain was sowed onto a 48-well plate at a cell density of 2.0×10^4 cells/well. • (2) Culturing was performed for 24 hours with Dulbecco's Modified Eagle's medium (manufactured by SIGMA. Hereinafter, abbreviated as D-MEM) containing 10% fetal bovine serum (manufactured by Roshe Diagnostics). Then, it was changed to 0.2 mM theophylline and a 10% fetal bovine serum-containing D-MEM which contains a sample of given concentration. • (3) After culturing for 3 days in the co-existence of a sample, the medium was removed using an aspirator. Then, after distilled water was added, cells were broken by an ultrasonic wave. • (4) Thereafter, the amount of protein was determined using BCA protein assay kit (manufactured by PIERCE), and the produced amount of melanine was measured by an alkali solubilizing method. To the cell-destructed solution was added sodium hydroxide so as to give a final concentration of 2N and the mixture was dissolved by heating (60° C., 15 minutes), then, the absorbance at 450 nm was measured using a micro plate reader. The melanine amount was calculated from a calibration curve made using synthetic melanine (SIGMA) as a standard. The melanine amount per unit protein was calculated by dividing the melanine amount by the protein amount. • (5) The melanine production suppressing rate was calculated according to the following formula. Melanine production suppressing rate (%)=[1−(A−B)/(C−B)]×100 [wherein, A represents the melanine amount per unit protein (g/g) in adding a sample, B represents the melanine amount per unit protein (g/g) in the normal group, and C represents the melanine amount per unit protein (g/g) in the control group.]
# In the following Tables, the melanine production suppressing rate in measuring a sample at a concentration of 100 μM or less is expressed as described below. The measurement was carried out at N=4.
# [1] = system: Normal human dermal fibroblasts; assay: Collagen production of human fibroblast (Sircol collagen assay, 100 μM, 48 hours); assay type: cell-based; details: cultured 48 hours; for Collagen production promoting effect (collagen production amount, % of control group): N=4; for activity at 100 µM: Homo sapiens, Fibroblast, N=4, read-out: Collagen production promoting effect (collagen production amount, % of control group)
# Experimental: Normal human dermal fibroblasts were regulated with a 10% (v/v) fetal bovine serum (manufactured by Roshe Diagnostics)-containing D-MEM so as to give a cell density of 2.5×10^4 cells/well, then, pre-incubation for 24 hours was performed on a 96-well plate. After the medium was removed, a sample regulated with a 5% (v/v) fetal bovine serum-containing D-MEM to a concentration of 100 μM was added to each well, then, cultured for 48 hours under 37° C. and 5% CO2. After completion of culturing, the amount of free collagen was measured using Sircol collagen assay kit (manufactured by Biocolor). The measurement was carried out at N=4.
# The collagen production amount in measuring a sample at a concentration of 100 μM was compared with the control group, and the results thereof (% value when the control group is 100%) are shown in Tables 44 and 45 based on the following standard.
Compound,Whitening effect (melanine production suppressing rate) (B16 melanoma 4A5 cell),other results
CCCCCCCCCOC1=C(OCC(O)CO)[C@@H]([C@@H](O)CO)OC1=O (stereo partly drawn) [Example 60],+++ (70 to 100%:+++),
"CCOCC(O)COC1=C(O)C(=O)OC1C(O)CO (stereo not drawn) [Example 7, 3-O-ethylglyceryl ascorbic acid]",+ (20 to 40%:+),
CCCCOCC(O)COC1=C(O)[C@@H]([C@@H](O)CO)OC1=O (stereo partly drawn) [Example 48],+++ (70 to 100%:+++),"Collagen production promoting effect (collagen production amount, % of control group) [1]: + (100 to 200%:+)"
O=C1O[C@H]([C@@H](O)CO)C(OCC(O)COc2ccccc2)=C1O (stereo partly drawn) [Example 44],,"Collagen production promoting effect (collagen production amount, % of control group) [1]: + (100 to 200%:+)"
"O=C1OC(C(O)CO)C(OC(CO)c2ccccc2)=C1O (stereo not drawn) [compound 12, 3-O-(2-hydroxy-1-phenylethyl)ascorbic acid]",++ (40 to 70%:++),
CCCCOC1=C(OCC(O)CO)[C@@H]([C@@H](O)CO)OC1=O (stereo partly drawn) [Example 57],+ (20 to 40%:+),"Collagen production promoting effect (collagen production amount, % of control group) [1]: + (100 to 200%:+)"
CCCCCCCCC(O)COC1=C(OCC(O)CO)C(=O)OC1C(O)CO (stereo not drawn) [Example 83],+ (20 to 40%:+),"Collagen production promoting effect (collagen production amount, % of control group) [1]: + (100 to 200%:+)"
CCCCCCCCCCCCOC1=C(OCC(O)CO)[C@@H]([C@@H](O)CO)OC1=O (stereo partly drawn) [Example 63],++ (40 to 70%:++),
3-O-(2-hydroxydecyl)-2-O-butylglyceryl ascorbic acid [Example 28],++ (40 to 70%:++),"Collagen production promoting effect (collagen production amount, % of control group) [1]: + (100 to 200%:+)"
CCCCCCCCOCC(O)COC1=C(OCCCCCCCC)C(=O)O[C@@H]1[C@@H](O)CO (stereo partly drawn) [Example 73],+ (20 to 40%:+),
CCCCCCCCCCOC1=C(OCC(O)CO)[C@@H]([C@@H](O)CO)OC1=O (stereo partly drawn) [Example 61],+++ (70 to 100%:+++),
CCCCCCCCOCC(O)COC1=C(OCC(O)COCCCCCCCC)C(C(O)CO)OC1=O (stereo not drawn) [Example 91],+ (20 to 40%:+),
"CCOCC(O)COC1=C(O)C(C(O)CO)OC1=O (stereo not drawn) [Example 13, 2-O-ethylglyceryl ascorbic acid]",+ (20 to 40%:+),
CCCCCCCCCCCCCCCCOCC(O)COC1=C(OCC(O)CO)C(C(O)CO)OC1=O (stereo not drawn) [Example 86],++ (40 to 70%:++),
CCCCCCCCCCCOC1=C(OCC(O)CO)[C@@H]([C@@H](O)CO)OC1=O (stereo partly drawn) [Example 62],++ (40 to 70%:++),
C=CCOC1=C(OCC(O)COc2ccccc2)[C@@H]([C@@H](O)CO)OC1=O (stereo partly drawn) [Example 55],+ (20 to 40%:+),
CCCCCCCCCCCCCOC1=C(OCC(O)CO)[C@@H]([C@@H](O)CO)OC1=O (stereo partly drawn) [Example 64],++ (40 to 70%:++),
CCCCCCCCOC1=C(OCC(O)COCCCC)[C@@H]([C@@H](O)CO)OC1=O (stereo partly drawn) [Example 70],++ (40 to 70%:++),
"O=C1O[C@H]([C@@H](O)CO)C([O-])=C1O.[Na+] [sodium ascorbate, reference compound]",± (<20%:±),
CCCCCCCCC(O)COC1=C(OCCCC)C(=O)O[C@@H]1[C@@H](O)CO (stereo partly drawn) [Example 79],+++ (70 to 100%:+++),
CC=CCOC1=C(OCC(O)COCCCC)[C@@H]([C@@H](O)CO)OC1=O (stereo partly drawn) [Example 53],+ (20 to 40%:+),
"O=C1OC(C(O)CO)C(OCC(O)COc2ccccc2)=C1OCC(O)COc1ccccc1 (stereo not drawn) [Example 88, 2,3-di-O-phenylglyceryl ascorbic acid]",++ (40 to 70%:++),"Collagen production promoting effect (collagen production amount, % of control group) [1]: + (100 to 200%:+)"

Compound,Whitening effect (melanine production suppressing rate) (B16 melanoma 4A5 cell),other results
CCCCCCCCCCCCOC1=C(OCC(O)COCCCC)[C@@H]([C@@H](O)CO)OC1=O (stereo partly drawn) [Example 71],+ (20 to 40%:+),
CCOCC(O)COC1=C(OCC)C(=O)O[C@@H]1[C@@H](O)CO (stereo partly drawn) [Example 66],+ (20 to 40%:+),"Collagen production promoting effect (collagen production amount, % of control group) [1]: + (100 to 200%:+)"
CCCCCCCCCCCCCCCCOCC(O)COC1=C(OCC(O)COCCCCCCCC)C(C(O)CO)OC1=O (stereo not drawn) [Example 92],++ (40 to 70%:++),"Collagen production promoting effect (collagen production amount, % of control group) [1]: + (100 to 200%:+)"
OC[C@H]1O[C@@H](Oc2ccc(O)cc2)[C@H](O)[C@@H](O)[C@@H]1O [arbutin],++ (40 to 70%:++),
CCCCCCCCCCCCOCC(O)COC1=C(OCC(O)COCCCC)C(C(O)CO)OC1=O (stereo not drawn) [Example 90],+ (20 to 40%:+),"Collagen production promoting effect (collagen production amount, % of control group) [1]: + (100 to 200%:+)"
"O=C1OC(C(O)CO)C(OC2CCCCC2O)=C1O (stereo not drawn) [compound 11, 3-O-(2-hydroxycyclohexyl) ascorbic acid]",+ (20 to 40%:+),activity at 100 µM [1]: 100 to 200%
CCCCCCCCCCCCCCCCOCC(O)COC1=C(OCC(O)CO)C(=O)OC1C(O)CO (stereo not drawn) [Example 82],++ (40 to 70%:++),
CCOC1=C(OCC(O)CO)C(=O)OC1C(O)CO (stereo not drawn) [Example 96],+ (20 to 40%:+),
CCCCCCOC1=C(OCC(O)COCCCC)[C@@H]([C@@H](O)CO)OC1=O (stereo partly drawn) [Example 69],+++ (70 to 100%:+++),
3-O-dodecylglyceryl-2-O-octylglyceryl ascorbic acid [Example 26],++ (40 to 70%:++),
CCCCCCCCCCCCCCCCOC1=C(OCC(O)COCCCC)[C@@H]([C@@H](O)CO)OC1=O (stereo partly drawn) [Example 72],++ (40 to 70%:++),
CCCCCCCCC(O)COC1=C(OCC)C(C(O)CO)OC1=O (stereo not drawn) [Example 98],++ (40 to 70%:++),
"CCCCCCCCCCCCCCOC1=C(OCC(O)CO)[C@@H]([C@@H](O)CO)OC1=O (stereo partly drawn) [Example 65, 3-O-glyceryl-2-O-tetradecyl ascorbic acid]",++ (40 to 70%:++),"whitening effect (in words) (B16 melanoma 4A5 cell; conclusion from Tables 38-40, compared with known ascorbic acid derivatives): excellent whitening effect"
CCCCCCCCCCCCOCC(O)COC1=C(OCC(O)CO)C(C(O)CO)OC1=O (stereo not drawn) [Example 85],++ (40 to 70%:++),
CCCCCCCCCCCCCCCCOCC(O)COC1=C(OCCCCCCCC)C(=O)O[C@@H]1[C@@H](O)CO (stereo partly drawn) [Example 77],+ (20 to 40%:+),
CCCCCCCOC1=C(OCC(O)CO)[C@@H]([C@@H](O)CO)OC1=O (stereo partly drawn) [Example 59],++ (40 to 70%:++),
"O=C1OC(C(O)CO)C(OCC(O)CO)=C1OCc1ccccc1 (stereo not drawn) [Example 17, 3-O-glyceryl-2-O-benzyl ascorbic acid]",+ (20 to 40%:+),activity at 100 µM [1]: 100 to 200%
3-O-ethylglyceryl-2-O-butyl ascorbic acid [Example 18],,"Collagen production promoting effect (collagen production amount, % of control group) [1]: + (100 to 200%:+)"
CCCCCCOC1=C(OCC(O)CO)[C@@H]([C@@H](O)CO)OC1=O (stereo partly drawn) [Example 58],++ (40 to 70%:++),
"CCCCCCCCCCCCCCCCOC1=C(OCC(O)CO)[C@@H]([C@@H](O)CO)OC1=O (stereo partly drawn) [Example 15, 3-O-glyceryl-2-O-hexadecyl ascorbic acid]",++ (40 to 70%:++),
CCCCOCC(O)COC1=C(OCC)C(=O)O[C@@H]1[C@@H](O)CO (stereo partly drawn) [Example 68],+ (20 to 40%:+),
